In the experiment the test system is Phospho-EGFR in H1975 cell line. The experiment can be described thus: HTRF Phospo EGFR Assay (Cellular). It is filed as cell-based. Conditions: Homo sapiens, NCI-H1975; H1975 cells, 6 hours compound incubation in starving medium, HTRF phospho-EGFR readout. As to the method:
HTRF Phospo EGFR Assay (Cellular)
H1975 cell line was obtained from American Type Culture Collection (Manassas, Va., USA). Cells were maintained at 37° C., 5% CO2 in complete Media RPMI 1640 without phenol red containing 0.3 mg/ml glutamine, 100 IU/ml penicillin, and […] (Gibco) supplemented with 10% fetal bovine serum (FBS) (Gibco). Compounds were diluted into starving medium RPMI 1640 Media without phenol red containing 0.3 mg/ml glutamine, 100 IU/ml penicillin, and […] (Gibco).
Cells were cultured overnight in a 384-well white plate (8000 cells/well) using 8 μl of complete medium/well. Cells were washed two times with 20 μl of starving medium. Media was removed by tapping plates on tissue and subsequently 8 μl of fresh starving medium/well was added. Then 4 μl/well of the 3× compound solution, containing a half-log dilution series of the compound or DMSO in starving medium, were added to the cells. After 6 hours at 37° C., 5% CO2 cells were lysed by adding to the compound mix 4 μl/well of the supplemented lysis buffer, followed by incubation for 30 min at room temperature with shaking. Lysates were stored at −20° C. over night. The following day plates were thawed and 2 μl of anti-Phospho-EGFR Cryptate and 2 μl of anti-Phospho-EGFR-d2 antibody solutions prepared in the detection buffer were added. The plates were then incubated for at least 4 h at room temperature before reading the fluorescence emission at 620 and 665 nm using PHERAstar FX plate reader (BMG Labtech).

Structures are written as SMILES. Where a name gives a salt, the structure may show the parent alone.

The IC50 is the concentration that inhibits the measured activity by half. A lower IC50 goes with higher potency. Take `O=C(Nc1ccccn1)C(c1ccccc1)n1cc2ccccc2n1` (racemic) [Example 1, (2RS)-2-Indazol-2-yl-2-phenyl-N-(2-pyridyl)acetamide]: the IC50 is 1.76 µM.

On to `O=C(Nc1nccs1)C(c1ccccc1)n1cc2ccccc2n1` (racemic) [Example 2, (2RS)-2-Indazol-2-yl-2-phenyl-N-thiazol-2-yl-acetamide], for which the IC50 amounted to 0.077 µM.

With `Nc1ccc2cn(C(C(=O)Nc3nccs3)c3ccccc3)nc2c1` (racemic) [Example 3, (2RS)-2-(6-Aminoindazol-2-yl)-2-phenyl-N-thiazol-2-yl-acetamide], the 50% inhibitory concentration (IC50) was 0.499 µM.

`COc1ccc2cn(C(C(=O)Nc3nccs3)c3ccccc3)nc2c1` (racemic) [Example 4, (2RS)-2-(6-Methoxyindazol-2-yl)-2-phenyl-N-thiazol-2-yl-acetamide]: the IC50 was 0.537 µM.

On to `O=C(Nc1nccs1)C(c1ccccc1)n1cc2ccc(O)cc2n1` (racemic) [Example 5, (2RS)-2-(6-Hydroxyindazol-2-yl)-2-phenyl-N-thiazol-2-yl-acetamide], for which half-maximal inhibition (IC50) was put at 0.199 µM.

For `O=C(Nc1nccs1)C(c1cc(F)ccc1O)n1cc2ccccc2n1` (racemic) [Example 6, (2RS)-2-(5-Fluoro-2-hydroxy-phenyl)-2-indazol-2-yl-N-thiazol-2-yl-acetamide], the IC50 came out at 0.057 µM.

With `Nc1ccc(C#Cc2ccc3cn(C(C(=O)Nc4ccccn4)c4cc(F)ccc4O)nc3c2F)cn1` (racemic) [Example 7, (2RS)-2-[6-[2-(6-Amino-3-pyridyl)ethynyl]-7-fluoro-indazol-2-yl]-2-(5-fluoro-2-hydroxy-phenyl)-N-(2-pyridyl)acetamide], the IC50 came out at 0.007 µM.

The molecule `O=C(Nc1nccs1)C(c1ccccc1)n1cc2ccc(-c3ccc(N4CCNCC4)nc3)c(Cl)c2n1` (racemic) [Example 8, (2RS)-2-[7-Chloro-6-(6-piperazin-1-yl-3-pyridyl)indazol-2-yl]-2-phenyl-N-thiazol-2-yl-acetamide] came in with an IC50 of 0.032 µM.

`O=C(Nc1ccccn1)C(c1ccccc1)n1cc2ccc(-c3ccc(N4CCNCC4)nc3)c(F)c2n1` (racemic) [Example 9, (2RS)-2-[7-Fluoro-6-(6-piperazin-1-yl-3-pyridyl)indazol-2-yl]-2-phenyl-N-(2-pyridyl)acetamide] displayed an IC50 of 0.127 µM.

`Nc1ccc(C#Cc2ccc3cn(C(C(=O)Nc4nccs4)c4ccccc4)nc3c2F)cn1` (racemic) [Example 11, (2RS)-2-[6-[2-(6-Amino-3-pyridyl)ethynyl]-7-fluoro-indazol-2-yl]-2-phenyl-N-thiazol-2-yl-acetamide] gave an IC50 of 0.052 µM.

Turning to `O=C(Nc1nccs1)C(c1ccccc1)n1cc2ccc(-c3ccc(N4CCNCC4)nc3)c(F)c2n1` (racemic) [Example 12, (2RS)-2-[7-Fluoro-6-(6-piperazin-1-yl-3-pyridyl)indazol-2-yl]-2-phenyl-N-thiazol-2-yl-acetamide hydrochloride], the IC50 is 0.031 µM.

In the case of `CCN1CCN(c2ccc(-c3ccc4cn(C(C(=O)Nc5nccs5)c5cccc(F)c5)nc4c3)cn2)CC1` (racemic) [Example 13, (2RS)-2-[6-[6-(4-Ethylpiperazin-1-yl)-3-pyridyl]indazol-2-yl]-2-(3-fluorophenyl)-N-thiazol-2-yl-acetamide], the IC50 amounted to 0.144 µM.

Molecule `O=C(Nc1nccs1)C(c1cccc(F)c1)n1cc2ccc(C#Cc3cccnc3)cc2n1` (racemic) [Example 14, (2RS)-2-(3-Fluorophenyl)-2-[6-[2-(3-pyridyl)ethynyl]indazol-2-yl]-N-thiazol-2-yl-acetamide] had an IC50 of 0.022 µM.

Consider `O=C(Nc1nccs1)C(c1cc(F)ccc1O)n1cc2cccc(Br)c2n1` (racemic) [Example 15, (2RS)-2-(7-Bromoindazol-2-yl)-2-(5-fluoro-2-hydroxy-phenyl)-N-thiazol-2-yl-acetamide], for which the concentration for half-maximal inhibition (IC50) stood at 0.001 µM.

`O=C(Nc1nccs1)C(c1cc(F)ccc1O)n1cc2cccc(-c3ccccc3)c2n1` (racemic) [Example 16, (2RS)-2-(5-Fluoro-2-hydroxy-phenyl)-2-(7-phenylindazol-2-yl)-N-thiazol-2-yl-acetamide]: the midpoint of inhibition, the IC50, lay at 0.055 µM.

On to `O=C(Nc1nccs1)C(c1cc(F)ccc1O)n1cc2cccc(N3CCOCC3)c2n1` (racemic) [Example 17, (2RS)-2-(5-Fluoro-2-hydroxy-phenyl)-2-(7-morpholinoindazol-2-yl)-N-thiazol-2-yl-acetamide], for which the IC50 was 0.06 µM.

Regarding `O=C(Nc1nccs1)C(c1cc(F)ccc1O)n1cc2ccc(Br)cc2n1` (racemic) [Example 18, (2RS)-2-(6-Bromoindazol-2-yl)-2-(5-fluoro-2-hydroxy-phenyl)-N-thiazol-2-yl-acetamide], half-maximal inhibition (IC50) required 0.043 µM.

Regarding `O=C(Nc1nccs1)C(c1cc(F)ccc1O)n1cc2ccc(-c3ccccc3)cc2n1` (racemic) [Example 19, (2RS)-2-(5-Fluoro-2-hydroxy-phenyl)-2-(6-phenylindazol-2-yl)-N-thiazol-2-yl-acetamide], the IC50 stood at 0.033 µM.

Turning to `O=C(Nc1nccs1)C(c1ccccc1)n1cc2ccc(-c3ccc(N4CCNCC4)nc3)cc2n1` (racemic) [Example 20, (2RS)-2-Phenyl-2-[6-(6-piperazin-1-yl-3-pyridyl)indazol-2-yl]-N-thiazol-2-yl-acetamide hydrochloride], the IC50 turned out to be 0.039 µM.

The record behind these values is patent publication US11708354B2, “2-benzopyrazinyl-n-heteroaryl-2-phenyl-acetamide compounds” (Hoffmann-La Roche Inc., priority 2016, dated 2023).
